pKd: −log10 of the molar value.
Molecular target: Galectin-3 (Homo sapiens, UniProt P17931)
Assay: Fluorescence Polarization Assay
Details: pH 7.2; 24 °C
Description: In fluorescence polarization measurements, a fluorescent probe was excited with plane-polarized light and the degree of polarization remaining in the emitted light is measured. When the probe is bound to protein, it rotates slower than when free, and the remaining fluorescence polarization is higher. The fluorescent anisotropy value for a probe-protein mixture is the average of the value for bound and free probe. For the direct binding asaay, the data (anisotropy, A in mA vs galectin concentration, [G] in uM) were fitted to a simplified formula to obtain Kd.

Chain of Galectin-3 (P17931 whole entry): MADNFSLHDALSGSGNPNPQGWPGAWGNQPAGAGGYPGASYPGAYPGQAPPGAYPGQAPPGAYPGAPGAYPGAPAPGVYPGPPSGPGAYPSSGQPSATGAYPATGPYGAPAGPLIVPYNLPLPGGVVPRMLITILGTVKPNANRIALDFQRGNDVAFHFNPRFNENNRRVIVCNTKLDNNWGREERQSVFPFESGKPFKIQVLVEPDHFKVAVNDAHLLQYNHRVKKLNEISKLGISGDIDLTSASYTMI

For `CS[C@@H]1O[C@H](CO)[C@H](O)[C@H](NC(=O)c2ccc(C)cc2)[C@H]1OCc1ccccc1` [N-[(2S,3R,4S,5R,6R)-3-(benzyloxy)-5-hydroxy-6-(hydroxymethyl)-2-(methylsulfanyl)oxan-4-yl]-4-methylbenzamide], the pKd was 3.42.

— BindingDB's records for doi:10.1021/jm701266y (Lund University, 2008)
